Here are results for one compound from publication PMC10489073 (Molecules, 2023).

Structures are written as SMILES. Where only a bound is given, the exact number is not on record here.

Assay [1] deals with T1, chymotrypsin-like (CT-L) activity of the 20S proteasome (Homo sapiens, UniProt P20618+P28074).
T1 construct: purchased R&D systems, Minneapolis, MN, USA
The assay is described as follows: 20S proteasome inhibition assay (Proteasome-Glo Chymotrypsin-Like). Type of assay: biochemical. The following applies: n ≥ 3, SD <20% of the mean, read-out: IC50 toward Chymotrypsin-like (CT-L). The method, then:
The 20S proteasome inhibition assay was performed using the Proteasome-Glo™ Chymotrypsin-Like Assay kit (Promega, Alexandria, NSW, Australia). Suc-LLVY-aminoluciferin is a substate that can be cleaved by the 20S proteasome, release the […] (aminoluciferin) and allow the luciferase reaction to produce light. Gradient concentration of tested compounds and the purified 20S proteasome enzyme (R&D systems, Minneapolis, MN, USA) were successively added into a transparent 96-well plate and mixed thoroughly. Then, 50 µL of a […] reagent was added. Gently mix contents with a plate shaker at 300 to 500 rpm for 30 s. Incubate at room temperature for an hour. The luminescence was recorded via the Tecan Spark multimode microplate.

A further assay has as its system P3x63Ag8.653. The assay is described as follows: Cell proliferation analysis (MTT). Type of assay: cell-based, murine. The following applies: Mus musculus, 48 h, read-out: Anti-proliferative activity IC50, P3x63Ag8.653. The method, then: (§1) All tumor cell lines in the current research were grown in a certain growth medium containing 10% FBS and 1% (v/v/v) penicillin–streptomycin–amphotericin at 37 °C in 5% CO2. Cells were seeded into 96-well plates at a density of 8 × 10^3 cells per well for tumor adherent cells and 2 × 10^4 cells per well for tumor-suspended cells in a final volume of 100 μL. After 12 h, 100 μL of various concentrations of compounds was added to each and incubated for 48 h. A 0.5% MTT solution was added per well before the intermixture was incubated for another 4 h, and formazan formed from MTT was extracted by adding […] of DMSO rocking for 15 min. Absorbance was measured at 570 nm using a Spark multimode microplate from Tecan. The IC50 values were calculated according to the inhibition ratios.

Another assay relates to A2780. Kind of assay: Cell proliferation analysis (MTT). In kind it is cell-based. As to conditions: Homo sapiens, 48 h, read-out: Anti-proliferative activity IC50, A2780. The method, then:
as §1

The next assay relates to ARP-1. The assay is described as follows: Cell proliferation analysis (MTT). In kind it is cell-based. As to conditions: 48 h, read-out: Anti-proliferative activity IC50, ARP-1. The method, then:
as §1

The next assay deals with HCT116. The assay is described as follows: Cell proliferation analysis (MTT). In kind it is cell-based. The following applies: Homo sapiens, HCT-116, 48 h, read-out: Anti-proliferative activity IC50, HCT116. The method, then: as §1
For a further assay, the system named is HEL. The assay is described as follows: Cell proliferation analysis (MTT). In kind it is cell-based. As to conditions: Homo sapiens, 48 h, read-out: Anti-proliferative activity IC50, HEL. The method, then:
as §1

In a further assay the test system is HT-29. Kind of assay: Cell proliferation analysis (MTT). Type of assay: cell-based. The following applies: Homo sapiens, 48 h, read-out: Anti-proliferative activity IC50, HT-29. The method, then:
as §1

The subject of the next assay is Hela. Kind of assay: Cell proliferation analysis (MTT). In kind it is cell-based. As to conditions: Homo sapiens, 48 h, read-out: Anti-proliferative activity IC50, Hela. The method, then:
as §1

The next assay relates to KG1. Kind of assay: Cell proliferation analysis (MTT). In kind it is cell-based. The following applies: Homo sapiens, KG-1, 48 h, read-out: Anti-proliferative activity IC50, KG1. The method, then:
as §1

Another assay concerns MDA-MB-231. The assay is described as follows: Cell proliferation analysis (MTT). Type of assay: cell-based. The following applies: Homo sapiens, 48 h, read-out: Anti-proliferative activity IC50, MDA-MB-231. The method, then:
as §1

Another assay concerns MM.1S. The assay is described as follows: Cell proliferation analysis (MTT). The following applies: Homo sapiens, MM1.S, 48 h, read-out: Anti-proliferative activity IC50, MM.1S. Type of assay: cell-based. The method, then:
as §1

The next assay has as its system PC3. Kind of assay: Cell proliferation analysis (MTT). Type of assay: cell-based. The following applies: Homo sapiens, PC-3, 48 h, read-out: Anti-proliferative activity IC50, PC3. The method, then:
as §1

In a further assay the test system is RPMI-8266. Kind of assay: Cell proliferation analysis (MTT). The following applies: RPMI8266, 48 h, read-out: Anti-proliferative activity IC50, RPMI-8266. Type of assay: cell-based. The method, then:
as §1

A further assay relates to SP2. Kind of assay: Cell proliferation analysis (MTT). Type of assay: cell-based. The following applies: 48 h, read-out: Anti-proliferative activity IC50, SP2. The method, then:
as §1

For another assay, the system named is U251. The assay is described as follows: Cell proliferation analysis (MTT). Type of assay: cell-based. As to conditions: Homo sapiens, U-251, 48 h, read-out: Anti-proliferative activity IC50, U251. The method, then:
as §1

The next assay concerns U266. Kind of assay: Cell proliferation analysis (MTT). Type of assay: cell-based. The following applies: Homo sapiens, U-266, 48 h, read-out: Anti-proliferative activity IC50, U266. The method, then: as §1
The test system of a further assay is HEK293. The assay is described as follows: Cell proliferation analysis (MTT), normal cells. Type of assay: cell-based. As to conditions: Homo sapiens, non-malignant cell line, 48 h, read-out: Anti-proliferative activity IC50, HEK293. The method, then: as §1
The next assay relates to HL-7702. Kind of assay: Cell proliferation analysis (MTT), normal cells. Type of assay: cell-based. As to conditions: Homo sapiens, L02, non-malignant cell line, 48 h, read-out: Anti-proliferative activity IC50, HL-7702. The method, then: as §1
The subject of assay [2] is subcutaneous P3x63Ag8.653 tumor. Kind of assay: In vivo P3x63Ag8.653 tumor transplant model. The arrangement: species or system mice. As to conditions: 0.05 mmol/kg oral, two weeks. The method, then:
The animal experiments were conducted under the guidelines of the “Regulations for the Administration of Affairs Concerning Experimental Animals” (revised 2017, State Council No. 676). For the P3x63Ag8.653 tumor development, male mice were subcutaneously injected with 200 μL murine P3x63Ag8.653 cells with a density of 1 × 10^7/mL. On the eighth day after injection, the transplanted mice were randomized into treatment and control groups. The tested compounds were administrated orally at the prescribed dose biweekly for two weeks. After two weeks of administration, mice were executed, and the tumor tissues were dissected and weighed. T/C was calculated according to the following formula: T/C = the mean RTV of the treated group/the mean RTV of the control group, where RTV is the relative tumor volume = Vt/V0 (Vt, the tumor volume measured at the end of treatment; V0, the tumor volume measured at the beginning of treatment).

For assay [3] the following is noted: high concentrations up to 1 mM; cited from earlier work.

As to `CC(C)C[C@H](NC(=O)[C@@H](O)[C@H](N)Cc1ccccc1)C(=O)O` [Ubenimex], the IC50 in assay [1] was over 10 µM; in the assay with P3x63Ag8.653, over 200 µM; in the assay on A2780, over 200 µM; with ARP-1, over 200 µM; with HCT116, over 200 µM; in the assay on HEL, over 200 µM. Further, the IC50 with HT-29, in the assay on Hela, with KG1, in the assay on MDA-MB-231, in the assay with MM.1S and in the assay on PC3 was over 200 µM each time. In addition, the IC50 in the assay with RPMI-8266, in the assay on SP2, with U251, in the assay with U266, in the assay with HEK293 and in the assay on HL-7702 was over 200 µM throughout. In addition, the anti-tumor activity entry in [2] is given as “moderate anti-tumor activity”. Moreover, the anti-proliferation activity result in assay [3] is “not apparent”.
